Measurements reported in patent EP0694535A1, “Non-peptidyl tachykinin receptor antagonists” (ELI LILLY AND COMPANY, priority 1994, dated 1996).
Counter-ions that a name gives are not always drawn.

Biological target: T1, NK-1 receptor (Homo sapiens, UniProt P25103)
T1 construct: an aliquot of IM9 cells; endogenous in cells; host or cells: IM9 cells (whole cells)
Experiment: NK-1 Receptor Binding Assay (competition with labeled substance P on IM9 cells)
Conditions: @ 20μM, inhibition of substance P binding to the NK-1 receptor, read-out: Percent Inhibition
Procedure: Radioreceptor binding assays were performed using a derivative of a previously published protocol. D.G. Payan, et al., Journal of Immunology, 133:3260-3265 (1984). In this assay an aliquot of IM9 cells (1 x 10⁶ cells/tube in […] medium supplemented with 10% fetal calf serum) was incubated with 20 pM […] substance P in the presence of increasing competitor concentrations for 45 minutes at 4°C.
The IM9 cell line is a well-characterized cell line which is readily available to the public. See. e.g., Annals of the New York Academy of Science, 190: 221-234 (1972); Nature (London), 251:443-444 (1974); Proceedings of the National Academy of Sciences (USA), 71:84-88 (1974). These cells were routinely cultured in RPMI 1640 supplemented with 50 µg/ml gentamicin sulfate and 10% fetal calf serum.
The reaction was terminated by filtration through a glass fiber filter harvesting system using filters previously soaked for 20 minutes in 0.1% polyethylenimine. Specific binding of labeled substance P was determined in the presence of 20 nM unlabeled ligand.
Column 1 provides the example number of the test antagonist compound. The next columns detail the substitution patterns of the test compound.

T1 sequence (P25103 whole entry): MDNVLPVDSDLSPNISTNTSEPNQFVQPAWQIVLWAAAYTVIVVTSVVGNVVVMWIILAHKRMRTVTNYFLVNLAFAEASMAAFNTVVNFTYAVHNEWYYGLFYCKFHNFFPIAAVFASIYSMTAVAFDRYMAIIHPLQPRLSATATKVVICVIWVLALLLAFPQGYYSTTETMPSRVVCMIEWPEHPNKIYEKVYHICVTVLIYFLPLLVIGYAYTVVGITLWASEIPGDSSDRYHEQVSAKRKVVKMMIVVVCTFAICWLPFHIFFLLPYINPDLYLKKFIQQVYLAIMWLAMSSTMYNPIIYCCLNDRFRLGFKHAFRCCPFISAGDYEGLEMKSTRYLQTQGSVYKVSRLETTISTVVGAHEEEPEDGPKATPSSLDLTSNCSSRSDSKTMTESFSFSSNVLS

Compound | inhibition at 20 µM [%]
c1ccc(-c2nc3ccccc3n2-c2ccccc2)cc1 [Example 1, 1,2-diphenylbenzimidazole] | 25
COc1ccc(-c2nc3ccccc3n2-c2ccccc2)cc1 [Example 2, 1-phenyl-2-(4-methoxyphenyl)benzimidazole] | 38
c1ccc(Cc2nc3ccccc3n2-c2ccccc2)cc1 [Example 3, 1-phenyl-2-phenylmethylbenzimidazole] | 30
Clc1ccc(-c2nc3ccccc3n2-c2ccccc2)cc1 [Example 5, 1-phenyl-2-(4-chlorophenyl)benzimidazole] | 38
Clc1ccc(-n2c(-c3ccccc3)nc3ccccc32)cc1 [Example 8, 1-(4-chlorophenyl)-2-phenylbenzimidazole] | 11
FC(F)(F)c1cccc(-c2nc3ccccc3n2-c2ccccc2)c1 [Example 9, 1-phenyl-2-(3-trifluoromethylphenyl)-benzimidazole] | 15
Clc1ccc(-c2nc3ccccc3n2-c2ccc(Cl)cc2)cc1 [Example 11, 1-(4-chlorophenyl)-2-(4-chlorophenyl)-benzimidazole] | 19
COc1ccc(-c2nc3ccccc3n2-c2ccc(Cl)cc2)cc1 [Example 17, 1-(4-chlorophenyl)-2-(4-methoxyphenyl)benzimidazole] | 17
Cc1ccc(-c2nc3ccccc3n2-c2ccccc2)cc1 [Example 18, 1-phenyl-2-(4-methylphenyl)benzimidazole] | 37
c1ccc(-n2c(C3CCCCC3)nc3ccccc32)cc1 [Example 21, 1-phenyl-2-cyclohexylbenzimidazole] | 26
Clc1ccccc1-c1nc2ccccc2n1-c1ccccc1 [Example 22, 1-phenyl-2-(2-chlorophenyl)benzimidazole] | 65
Cc1ccccc1-c1nc2ccccc2n1-c1ccccc1 [Example 23, 1-phenyl-2-(2-methylphenyl)benzimidazole] | 51
CN(C)CCn1c(-c2ccccc2)nc2ccccc21 [Example 26, 1-dimethylaminoethyl-2-phenylbenzimidazole dihydrochloride] | 0
c1ccc(-c2nc3ccccc3n2CCN2CCCCC2)cc1 [Example 28, 1-(piperidin-1-ylethyl)-2-phenylbenzimidazole dihydrochloride] | 16
Oc1ccc(-c2nc3ccccc3n2-c2ccccc2)cc1 [Example 29, 1-phenyl-2-(4-hydroxyphenyl)benzimidazole] | 67
O=[N+]([O-])c1cc(-c2nc3ccccc3n2-c2ccccc2)ccc1Cl [Example 30, 1-phenyl-2-(3-nitro-4-chlorophenyl)-benzimidazole] | 79
CCCCCc1nc2ccccc2n1-c1ccccc1 [Example 35, 1-phenyl-2-pentylbenzimidazole hydrochloride] | 51
FC(F)(F)c1ccccc1-c1nc2ccccc2n1-c1ccccc1 [Example 36, 1-phenyl-2-(2-trifluoromethylphenyl)-benzimidazole] | 43

Same assay, conditions: at 10μM, inhibition of substance P binding to the NK-1 receptor, read-out: Percent Inhibition

Compound | inhibition at 10 µM [%]
Cc1cccc(-c2nc3ccccc3n2Cc2ccc(Cl)cc2Cl)c1 [Example 63, 1-(2,4-Dichlorobenzyl)-2-(3-methylphenyl)benzimidazole] | 36
COc1cccc(Cn2c(-c3cccc(C)c3)nc3ccccc32)c1 [Example 65, 1-(3-Methoxybenzyl)-2-(3-methylphenyl)benzimidazole] | 58
COc1ccc(Cn2c(-c3cccc(C)c3)nc3ccccc32)cc1 [Example 66, 1-(4-Methoxybenzyl)-2-(3-methylphenyl)benzimidazole] | 34
Cc1cccc(-c2nc3ccccc3n2Cc2cccc(O)c2)c1 [Example 67, 1-(3-hydroxybenzyl)-2-(3-methylphenyl)benzimidazole hydrobromide] | 60

Same assay, conditions: concentration which inhibits fifty percent of the binding of substance P, 20 pM labeled substance P, 45 minutes at 4°C

Compound | IC50 [µM]
Clc1cccc(-c2nc3ccccc3n2-c2ccccc2)c1 [Example 4, 1-phenyl-2-(3-chlorophenyl)benzimidazole] | 7
COc1cccc(-c2nc3ccccc3n2-c2ccccc2)c1 [Example 6, 1-phenyl-2-(3-methoxyphenyl)benzimidazole] | 3.29
O=[N+]([O-])c1ccc(-c2nc3ccccc3n2-c2ccccc2)cc1 [Example 7, 1-phenyl-2-(4-nitrophenyl)benzimidazole] | 9.12
O=[N+]([O-])c1cccc(-c2nc3ccccc3n2-c2ccccc2)c1 [Example 10, 1-phenyl-2-(3-nitrophenyl)benzimidazole] | 5
FC(F)(F)c1ccc(-c2nc3ccccc3n2-c2ccccc2)cc1 [Example 12, 1-phenyl-2(4-trifluoromethylphenyl)-benzimidazole] | 6.72
c1ccc(-n2c(-c3ccc4ccccc4c3)nc3ccccc32)cc1 [Example 13, 1-phenyl-2-(2-naphthyl)benzimidazole] | 6.91
COc1cc(OC)cc(-c2nc3ccccc3n2-c2ccccc2)c1 [Example 14, 1-phenyl-2-(3,5-dimethoxyphenyl)benzimidazole] | 1.54
COc1ccc(-c2nc3ccccc3n2-c2ccccc2)cc1OC [Example 15, 1-phenyl-2-(3,4-dimethoxyphenyl)benzimidazole] | 2.98
COc1cc(-c2nc3ccccc3n2-c2ccccc2)cc(OC)c1OC [Example 16, 1-phenyl-2-(3,4,5-trimethoxyphenyl)-benzimidazole] | 0.64
Cc1cccc(-c2nc3ccccc3n2-c2ccccc2)c1 [Example 19, 1-phenyl-2-(3-methylphenyl)benzimidazole] | 1.1
N#Cc1ccc(-c2nc3ccccc3n2-c2ccccc2)cc1 [Example 20, 1-phenyl-2-(4-cyanophenyl)benzimidazole] | 3.47
COc1ccccc1-c1nc2ccccc2n1-c1ccccc1 [Example 24, 1-phenyl-2-(2-methoxyphenyl)benzimidazole] | 8.67
N#Cc1cccc(-c2nc3ccccc3n2-c2ccccc2)c1 [Example 25, 1-phenyl-2-(3-cyanophenyl)benzimidazole] | 3.27
Clc1ccc(-c2nc3ccccc3n2-c2ccccc2)cc1Cl [Example 27, 1-phenyl-2-(3,4-dichlorophenyl)benzimidazole] | 6.61
CCCc1nc2ccccc2n1-c1ccccc1 [Example 32, 1-phenyl-2-propylbenzimidazole] | 10
c1ccc(-n2c(-c3cccs3)nc3ccccc32)cc1 [Example 33, 1-phenyl-2-(thien-2-yl)benzimidazole] | 3.98
Oc1cccc(-c2nc3ccccc3n2-c2ccccc2)c1 [Example 34, 1-phenyl-2-(3-hydroxyphenyl)benzimidazole] | 12
COc1ccc2c(c1)nc(-c1cc(OC)c(OC)c(OC)c1)n2Cc1ccccc1 [Example 38, 1-phenylmethyl-2-(3,4,5-trimethoxyphenyl)-5-methoxybenzimidazole] | 1.05
COc1ccc2nc(-c3cc(OC)c(OC)c(OC)c3)n(Cc3ccccc3)c2c1 [Example 39, 1-phenylmethyl-2-(3,4,5-trimethoxyphenyl)-6-methoxybenzimidazole] | 0.427
COc1cc(-c2nc3ccc(O)cc3n2Cc2ccccc2)cc(OC)c1OC [Example 69, 1-benzyl-2-(3,4,5-trimethoxyphenyl)-6-(hydroxy)-benzimidazole hydrochloride] | 1.13
COc1cc(-c2nc3ccc(OC(C)CN(C)C)cc3n2Cc2ccccc2)cc(OC)c1OC (centres unmarked) [Example 78] | 0.151
COc1cc(-c2nc3ccc(OCCN(C)C)cc3n2Cc2ccccc2)cc(OC)c1OC [Example 79, 1-benzyl-2-(3,4,5-trimethoxyphenyl)-6-[2-(N,N-dimethylamino)ethoxy]benzimidazole] | 0.097
COc1cc(-c2nc3ccc(OCCCN(C)C)cc3n2Cc2ccccc2)cc(OC)c1OC [Example 80, 1-benzyl-2-(3,4,5-trimethoxyphenyl)-6-[3-(N,N-dimethylamino)propoxy]benzimidazole] | 0.123
COc1cc(-c2nc3ccc(OCCN(C(C)C)C(C)C)cc3n2Cc2ccccc2)cc(OC)c1OC [Example 81, 1-benzyl-2-(3,4,5-trimethoxyphenyl)-6-[2-(N,N-diisopropylamino)ethoxy]benzimidazole] | 0.04
COc1cc(-c2nc3ccc(OCCN4CCN(C)CC4)cc3n2Cc2ccccc2)cc(OC)c1OC [Example 83, 1-benzyl-2-(3,4,5-trimethoxyphenyl)-6-[2-(4-methyl-1-piperazinyl)ethoxy]benzimidazole] | 0.098
